Measurements: patent US11306313B2, “Peptide, complex of peptide and siRNA, and methods of use thereof” (Positec Power Tools (Suzhou) Co., Ltd, priority 2013, dated 2022)
Where a SMILES comes first, the peptide text is derived from it.

How the values were obtained:
[1] = Cytotoxicity test (CCK8 cell viability); format: cell-based; settings: CHO-K1 cells, FIG. 5, molar ratio 20/1 and 40/1, siRNA 50 nM, read-out: cell survival rate
Description: CHO-K1 cells were seeded at 5,000-8,000 cells/well in clear, flat-bottomed, 96-well plates in triplicate and grown for 24 h at 37° C. with 5% CO2. The complexes or control samples were added to the cells in 150 μl of standard media and the cells were incubated for 48 h. The CCK8 assay was used to determine cell viability, according to the manufacturer's instructions. Briefly, […] of CCK8 stock was added to each well and incubated for 2 h at 37° C. in 5% CO2. Then, the cultures were removed from the incubator and the absorbance at 570 nm was read on a plate reader (FLUOstar OPTIMA, BMG, Germany). The background absorbance of the multiwell plates at 690 nm was determined and subtracted from the 570 nm measurement. The results obtained from triplicate wells were averaged and normalized using the value obtained for non-treated cells.

[2] = Cell absorption test; format: cell-based
[3] = reported in WO2013/075244 A1; cited from earlier work
[4] = reported in WO2013/075244 A1; cited from earlier work; remark: listed apart in the source

CC(=O)NCC(=O)N[C@@H](CC(C)C)C(=O)N[C@@H](Cc1c[nH]c2ccccc12)C(=O)N[C@@H](Cc1c[nH]cn1)C(=O)N[C@@H](C)C(=O)N[C@@H](Cc1c[nH]c2ccccc12)C(=O)N[C@@H](CC(C)C)C(=O)N[C@@H](Cc1c[nH]c2ccccc12)C(=O)N[C@@H](Cc1c[nH]cn1)C(=O)N[C@@H](C)C(=O)N[C@@H](Cc1ccccc1)C(=O)N[C@@H](CC(C)C)C(=O)N[C@@H](C)C(=O)N[C@@H](CO)C(=O)N[C@@H](Cc1c[nH]cn1)C(=O)N[C@@H](CCCNC(=N)N)C(=O)N[C@@H](CC(C)C)C(=O)N[C@@H](CC(C)C)C(=O)N[C@@H](CCCNC(=N)N)C(=O)N[C@@H](CC(C)C)C(=O)N[C@@H](CC(C)C)C(=O)N[C@@H](CCCNC(=N)N)C(N)=O [GL5, CH3CONH-GLWHAWLWHAFLASHR LLRLLR-CONH2] (Ac-GLWHAWLWHAFLASHRLLRLLR-NH2)
viability at 48 h [1]: ~105%

CH3(CH2)16CONH-HHHHHHHHHHHHHHHHRRRRRRRR-CONH2 (stearyl-HHHHHHHHHHHHHHHHRRRRRRRR-NH2) [STR-HR]
absorption efficiency compared with lipid 2000 [2]: higher than that of lipid 2000

GLWRAWLWKAFLASNWRRLLRLLR (Synthetic sequence - peptide GL1)
siRNA delivery (uptake) efficiency [3]: about 95% | gene silencing efficiency [4]: about 50%
